{"source": "ChEMBL document CHEMBL5512632", "about": "“Unlocking the potential of 1,4-naphthoquinones: A comprehensive review of their anticancer properties” (Eur J Med Chem, 2024)", "key": {"GBM": {"test_system": "GBM", "assay": "Cytotoxicity against human GBM cells assessed as inhibition of cell growth incubated for 72 hrs by MTT assay", "format": "functional, cell-based"}, "U-87 MG": {"test_system": "U-87 MG", "assay": "Cytotoxicity against human U87 cells assessed as inhibition of cell growth incubated for 72 hrs by MTT assay", "format": "functional, cell-based, U-87MG ATCC"}, "PC-3M": {"test_system": "PC-3M", "assay": "Cytotoxicity against human PC-3M cells incubated for 72 hrs by MTT assay", "format": "functional, cell-based"}, "[1]": {"assay": "Cytotoxicity against human NCI-H358M cells incubated for 72 hrs by MTT assay", "format": "functional, cell-based"}, "OVCAR-8": {"test_system": "OVCAR-8", "assay": "Cytotoxicity against human OVCAR-8 cells incubated for 72 hrs by MTT assay", "format": "functional, cell-based", "settings": "OVCAR-8, 72 h"}, "Hs-578T": {"test_system": "Hs-578T", "assay": "Antiproliferative activity against human Hs-578T cells assessed as inhibition of cell growth incubated upto 120 hrs by MTS assay", "format": "functional, cell-based"}, "MCF7 [2]": {"test_system": "MCF7", "assay": "Antiproliferative activity against human MCF7 cells assessed as inhibition of cell growth incubated upto 120 hrs by MTS assay", "format": "functional, cell-based", "settings": "MCF7, 120 h"}, "MDA-MB-231": {"test_system": "MDA-MB-231", "assay": "Antiproliferative activity against human MDA-MB-231 cells assessed as inhibition of cell growth incubated upto 120 hrs by MTS assay", "format": "functional, cell-based", "settings": "MDA-MB-231, 120 h"}, "HCC1806": {"test_system": "HCC1806", "assay": "Antiproliferative activity against human HCC1806 cells assessed as inhibition of cell growth incubated upto 120 hrs by MTS assay", "format": "functional, cell-based", "settings": "HCC1806, 120 h"}, "MCF7 [3]": {"test_system": "MCF7", "assay": "Cytotoxicity against human MCF7 cells assessed as inhibition of cell growth incubated upto 72 hrs by MTT assay", "format": "functional, cell-based", "settings": "MCF7, 72 h"}, "SW480": {"test_system": "SW480", "assay": "Cytotoxicity against human SW480 cells assessed as inhibition of cell growth incubated upto 72 hrs by MTT assay", "format": "functional, cell-based", "settings": "SW480, 72 h"}, "HT-29": {"test_system": "HT-29", "assay": "Cytotoxicity against human HT-29 cells assessed as inhibition of cell growth incubated upto 72 hrs by MTT assay", "format": "functional, cell-based", "settings": "HT-29, 72 h"}, "HL-60 [4]": {"test_system": "HL-60", "assay": "Cytotoxicity against human HL-60 cells assessed as inhibition of cell growth incubated upto 72 hrs by MTT assay", "format": "functional, cell-based", "settings": "HL-60, 72 h"}, "HepG2 [5]": {"test_system": "HepG2", "assay": "Cytotoxicity against human HepG2 cells assessed as inhibition of cell growth incubated upto 72 hrs by MTT assay", "format": "functional, cell-based", "settings": "HepG2, 72 h"}, "MCF7 [6]": {"test_system": "MCF7", "assay": "Cytotoxicity against human MCF7 cells assessed as reduction in cell growth incubated for 48 hrs by MTT assay", "format": "functional, cell-based", "settings": "MCF7, 48 h"}, "DU-145 [7]": {"test_system": "DU-145", "assay": "Cytotoxicity against human DU-145 cells assessed as reduction in cell growth incubated for 48 hrs by MTT assay", "format": "functional, cell-based", "settings": "DU-145, 48 h"}, "T-24": {"test_system": "T-24", "assay": "Cytotoxicity against human T24 cells assessed as reduction in cell growth incubated for 48 hrs by MTT assay", "format": "functional, cell-based", "settings": "T-24, 48 h"}, "MCF7 [8]": {"test_system": "MCF7", "assay": "Cytotoxicity against human MCF7 cells incubated for 24 hrs by MTT assay", "format": "functional, cell-based", "settings": "MCF7, 24 h"}, "HL-60 [9]": {"test_system": "HL-60", "assay": "Cytotoxicity against human HL-60 cells assessed as reduction in cell growth incubated for 48 hrs by MTT assay", "format": "functional, cell-based", "settings": "HL-60, 48 h"}, "SCC-25": {"test_system": "SCC-25", "assay": "Cytotoxicity against human SCC-25 cells incubated for 48 hrs by MTT reagent based spectrophotometric analysis", "format": "functional, cell-based", "settings": "SCC-25, 48 h"}, "U-937": {"test_system": "U-937", "assay": "Cytotoxicity against human U-937 cells assessed as reduction in cell viability incubated for 72 hrs by resazurin assay", "format": "functional, cell-based", "settings": "U-937, 72 h"}, "[10]": {"assay": "Antiproliferative activity against human CAL-78 cells assessed as inhibition of cell growth incubated for 24 hrs by CellTiter-Glo luminescent assay", "format": "functional, cell-based", "settings": "CAL-78, 24 h"}, "SW1353": {"test_system": "SW1353", "assay": "Antiproliferative activity against human SW1353 cells assessed as inhibition of cell growth incubated for 24 hrs by CellTiter-Glo luminescent assay", "format": "functional, cell-based", "settings": "SW1353, 24 h"}, "A549": {"test_system": "A549", "assay": "Antiproliferative activity against human A549 cells assessed as inhibition of cell growth by MTT assay", "format": "functional, cell-based"}, "MCF7 [11]": {"test_system": "MCF7", "assay": "Cytotoxicity against human MCF7 cells incubated for 48 hrs by MTT assay", "format": "functional, cell-based", "settings": "MCF7, 48 h"}, "DU-145 [12]": {"test_system": "DU-145", "assay": "Cytotoxicity against human DU-145 cells incubated for 48 hrs by MTT assay", "format": "functional, cell-based", "settings": "DU-145, 48 h"}, "HeLa": {"test_system": "HeLa", "assay": "Cytotoxicity against human HeLa cells incubated for 48 hrs by MTT reagent based spectrophotometric analysis", "format": "functional, cell-based"}, "Jurkat": {"test_system": "Jurkat", "assay": "Cytotoxicity against human Jurkat cells incubated for 48 hrs by MTT reagent based spectrophotometric analysis", "format": "functional, cell-based"}, "Huh-7": {"test_system": "Huh-7", "assay": "Cytotoxicity against human Huh-7 cells assessed as inhibition of cell growth incubated for 24 hrs by MTT reagent based microplate reader assay", "format": "functional", "settings": "Huh-7, 24 h"}, "HepG2 [13]": {"test_system": "HepG2", "assay": "Cytotoxicity against human HepG2 cells assessed as inhibition of cell growth incubated for 24 hrs by MTT reagent based microplate reader assay", "format": "functional", "settings": "HepG2, 24 h"}, "Hep 3B2": {"test_system": "Hep 3B2", "assay": "Cytotoxicity against human Hep3B cells assessed as inhibition of cell growth incubated for 24 hrs by MTT reagent based microplate reader assay", "format": "functional"}}, "data": [{"smiles": "CC(C)=CCC1=C(NCCCCN(CCCN)Cc2ccccc2)C(=O)c2ccccc2C1=O", "values": [{"measurement": "IC50", "setting": "GBM", "value": 6.6, "unit": "µM"}, {"measurement": "IC50", "setting": "U-87 MG", "value": 4.3, "unit": "µM"}]}, {"smiles": "CC1(O)CCC(C#CC2=C(C#CC3CCC(C)(O)CC3)C(=O)c3ccccc3C2=O)CC1", "note": "(stereo unspecified)", "values": [{"measurement": "IC50", "setting": "PC-3M", "value": 4.28, "unit": "µM"}, {"measurement": "IC50", "setting": "[1]", "value": 2.98, "unit": "µM"}, {"measurement": "IC50", "setting": "OVCAR-8", "value": 2.28, "unit": "µM"}]}, {"smiles": "COc1ccc(OC)c2c1C(=O)C(Cl)=C(Cl)C2=O", "values": [{"measurement": "IC50", "setting": "Hs-578T", "value": 1.63, "unit": "µM"}, {"measurement": "IC50", "setting": "MCF7 [2]", "value": 5.5, "unit": "µM"}, {"measurement": "IC50", "setting": "MDA-MB-231", "value": 3.28, "unit": "µM"}, {"measurement": "IC50", "setting": "HCC1806", "value": 2.68, "unit": "µM"}]}, {"smiles": "CC(C)=CCC/C(C)=C/CC/C(C)=C/CC1=C(O)C(=O)c2ccccc2C1=O", "values": [{"measurement": "IC50", "setting": "MCF7 [3]", "value": 47, "unit": "µM"}, {"measurement": "IC50", "setting": "SW480", "value": 2.02, "unit": "µM"}, {"measurement": "IC50", "setting": "HT-29", "value": 1.99, "unit": "µM"}, {"measurement": "IC50", "setting": "HL-60 [4]", "value": 5.41, "unit": "µM"}, {"measurement": "IC50", "setting": "HepG2 [5]", "value": 14, "unit": "µM"}]}, {"smiles": "O=C(C1=C(Nc2ccccc2)C(=O)c2ccccc2C1=O)c1ccco1", "values": [{"measurement": "IC50", "setting": "MCF7 [6]", "value": 4.64, "unit": "µM"}, {"measurement": "IC50", "setting": "DU-145 [7]", "value": 5.45, "unit": "µM"}, {"measurement": "IC50", "setting": "T-24", "value": 11.7, "unit": "µM"}, {"measurement": "EC50", "setting": "MCF7 [8]", "value": 15, "unit": "µM"}]}, {"smiles": "CC(=O)N[C@H]1[C@H](OC2=C(CC=C(C)C)C(=O)c3ccccc3C2=O)O[C@H](COC(C)=O)[C@@H](OC(C)=O)[C@@H]1OC(C)=O", "values": [{"measurement": "IC50", "setting": "HL-60 [9]", "value": 5.3, "unit": "µM"}]}, {"smiles": "CC(C)/C=C/C1=C(OCc2cn(-c3cccc(Cl)c3)nn2)C(=O)c2ccccc2C1=O", "values": [{"measurement": "IC50", "setting": "SCC-25", "value": 9.81, "unit": "µM"}]}, {"smiles": "CC(C)=CC[C@@H](OC(=O)C(C)C)C1=CC(=O)c2c(O)ccc(O)c2C1=O", "note": "[ISOBUTYLSHIKONIN]", "values": [{"measurement": "IC50", "setting": "U-937", "value": 0.05, "unit": "µM"}]}, {"smiles": "CC(C)=CC[C@@H](OC(=O)C1CC1)C1=CC(=O)c2c(O)ccc(O)c2C1=O", "values": [{"measurement": "IC50", "setting": "[10]", "value": 2.9, "unit": "µM"}, {"measurement": "IC50", "setting": "SW1353", "value": 1.2, "unit": "µM"}]}, {"smiles": "CC(=O)NCC1=C(Nc2ccc(O)c(C)c2)C(=O)c2ccccc2C1=O", "values": [{"measurement": "IC50", "setting": "A549", "value": 3, "unit": "µg/mL"}]}, {"smiles": "COc1cc(N)cc(OC)c1C1=C(C(C)=O)C(=O)c2ccccc2C1=O", "values": [{"measurement": "IC50", "setting": "MCF7 [11]", "value": 21.2, "unit": "µM"}, {"measurement": "IC50", "setting": "DU-145 [12]", "value": 12.3, "unit": "µM"}]}, {"smiles": "COc1ccc(NC2=CC(=O)c3cc4c(cc3C2=O)CCCC4(C)C)cc1", "values": [{"measurement": "IC50", "setting": "HeLa", "value": 0.01, "unit": "µM"}, {"measurement": "IC50", "setting": "Jurkat", "value": 1.4, "unit": "µM"}]}, {"smiles": "CCCS(=O)(=O)C12OC1C(=O)c1c(OC)ccc(OC)c1C2=O", "note": "(stereo unspecified)", "values": [{"measurement": "IC50", "setting": "Huh-7", "value": 7.68, "unit": "µM"}, {"measurement": "IC50", "setting": "HepG2 [13]", "value": 5.26, "unit": "µM"}, {"measurement": "IC50", "setting": "Hep 3B2", "value": 3.89, "unit": "µM"}]}]}
